≈ marks a conversion by molar mass, not a printed value. Values belong to the compound of their own block, whether it stands above or below them.
Assays:
[1] = Chemiluminescence measurements; type: physicochemical; details: for RC, quantum efficiency of chemiluminescence: 10^-3 mole/l coumarin solution; for RE, excitation efficiency: RC = Rex × RF
[2] = Fluorescence and absorbance measurements; type: physicochemical; details: for ε, molecular extinction coefficient: 365 nm; for S, fluorescence sensitivity: Table 2; for RF, quantum efficiency of fluorescence: acetone and ethylacetate 75:25, 10^-6 mole/l, 20°C, relative to quinine disulphate
[3] = Solubility in organic solvents; type: physicochemical; details: organic solvent or mixture; in tetrahydrofuran, acetone or methanol
[4] = Stability of a solution in tetrahydrofuran (high pressure liquid chromatography and fluorimetric detection); type: physicochemical; details: 2.10^-3 mole/l in tetrahydrofuran
Text: The stability of a 2.10^-3 mole/l solution of luminarine-1 in tetrahydrofuran was studied by high pressure liquid chromatography and fluorimetric detection.

[5] = 2 mg/l in 0.1 N H2SO4; Parker method; cited from earlier work
[6] = TCPO and H2O2, (C102) 1.4 × 10^-3
[7] = TCPO and H2O2, (C102) 1.4 × 10^-6
[8] = TCPO and H2O2, (C102) 1.4 × 10^-7
[9] = TCPO and H2O2, (C102) 1.4 × 10^-8
[10] = TCPO and H2O2, (C102) 1.4 × 10^-9

SMILES: CCN(CC)c1ccc2c(C)cc(=O)oc2c1 [COUMARIN-1, dimethylamino-7 methyl-4 coumarin]
RC, quantum efficiency of chemiluminescence ([1]; DNPO and H2O2): 0.18 10^2 E · mole^-1 | RE, excitation efficiency ([1]; DNPO and H2O2): 0.33 10^-2 | RC, quantum efficiency of chemiluminescence ([1]; TCPO and H2O2, pH 7.5): 0.37 10^2 E · mole^-1 | RE, excitation efficiency ([1]; TCPO and H2O2, pH 7.5): 0.0067 | ε, molecular extinction coefficient [2]: 38 000 | S, fluorescence sensitivity [2]: 57 10^3 | RF, quantum efficiency of fluorescence [2]: 0.55

SMILES: O=C(Cc1cc(=O)oc2c3c4c(cc12)CCCN4CCC3)ON1C(=O)CCC1=O [luminarine-1, tetrahydro-2,3,6,7,1H,5H, 11H(1)-benzo-pyrano(6,7,8-ij) succinimidoxycarbonylmethyl-9 quinolizinone-11]
solubility [3]: ~1000 µg/mL (≈ 2520 µM) | stability of solution at ambient temperature ([4]; ambient temperature, hydrolysis to acid (VIII)): deteriorates significantly in a few hours at ambient temperature | stability of frozen solution ([4]; frozen): at least two months without any apparent deterioration

SMILES: C=C[C@H]1CN2CC[C@H]1C[C@H]2[C@H](O)c1ccnc2ccc(OC)cc12 [quinine disulphate]
quantum efficiency of fluorescence (reference) [5]: 0.546

The next lines start with results.

RC, quantum efficiency of chemiluminescence ([1]; DNPO and H2O2): 0.26 10^2 E · mole^-1 | RE, excitation efficiency ([1]; DNPO and H2O2): 0.45 10^-2 | RC, quantum efficiency of chemiluminescence ([1]; TCPO and H2O2, pH 7.5): 0.37 10^2 E · mole^-1 | RE, excitation efficiency ([1]; TCPO and H2O2, pH 7.5): 0.0065 | Imax, maximum intensity [1, 6]: 301 A.U. | RC, chemiluminescence efficiency [1, 6]: 12.0 10^4 E · mol^-1 | T1/2, time for reaching half the maximum intensity after the maximum time [1, 6]: 6 s | Tmax, time for reaching the maximum intensity [1, 6]: 12 s | Imax, maximum intensity [1, 7]: 75 A.U. | RC, chemiluminescence efficiency [1, 7]: 4.14 10^4 E · mol^-1 | T1/2, time for reaching half the maximum intensity after the maximum time [1, 7]: 9 s | Tmax, time for reaching the maximum intensity [1, 7]: 12 s | Imax, maximum intensity [1, 8]: 31 A.U. | RC, chemiluminescence efficiency [1, 8]: 2.31 10^4 E · mol^-1 | T1/2, time for reaching half the maximum intensity after the maximum time [1, 8]: 7.2 s | Tmax, time for reaching the maximum intensity [1, 8]: 12 s | Imax, maximum intensity [1, 9]: 3.2 A.U. | RC, chemiluminescence efficiency [1, 9]: 0.40 10^4 E · mol^-1 | T1/2, time for reaching half the maximum intensity after the maximum time [1, 9]: 6 s | Tmax, time for reaching the maximum intensity [1, 9]: 12 s | Imax, maximum intensity [1, 10]: 0.3 A.U. | RC, chemiluminescence efficiency [1, 10]: 0.20 10^4 E · mol^-1 | T1/2, time for reaching half the maximum intensity after the maximum time [1, 10]: 4.8 s | Tmax, time for reaching the maximum intensity [1, 10]: 12 s | Imax, maximum intensity ([1]; pH 4): 24 A.U. | RC, chemiluminescence efficiency ([1]; pH 4): 1.52 10^4 E · mol^-1 | T1/2, time for reaching half the maximum intensity after the maximum time ([1]; pH 4): 300 s | Tmax, time for reaching the maximum intensity ([1]; pH 4): 48 s | chemiluminescence efficiency as a function of pH ([1]; pH 4 to 8): rises up to pH6 and then falls | maximum intensity as a function of pH ([1]; pH 4 to 8): increases significantly with the pH | Imax, maximum intensity ([1]; pH 5): 17 A.U. | RC, chemiluminescence efficiency ([1]; pH 5): 1.58 10^4 E · mol^-1 | T1/2, time for reaching half the maximum intensity after the maximum time ([1]; pH 5): 360 s | Tmax, time for reaching the maximum intensity ([1]; pH 5): 60 s | Imax, maximum intensity ([1]; pH 6): 25 A.U. | RC, chemiluminescence efficiency ([1]; pH 6): 2.34 10^4 E · mol^-1 | T1/2, time for reaching half the maximum intensity after the maximum time ([1]; pH 6): 336 s | Tmax, time for reaching the maximum intensity ([1]; pH 6): 48 s | Imax, maximum intensity ([1]; pH 7): 110 A.U. | RC, chemiluminescence efficiency ([1]; pH 7): 2.23 10^4 E · mol^-1 | T1/2, time for reaching half the maximum intensity after the maximum time ([1]; pH 7): 108 s | Tmax, time for reaching the maximum intensity ([1]; pH 7): 24 s | Imax, maximum intensity ([1]; pH 8): 245 A.U. | RC, chemiluminescence efficiency ([1]; pH 8): 1.60 10^4 E · mol^-1 | T1/2, time for reaching half the maximum intensity after the maximum time ([1]; pH 8): 24 s | Tmax, time for reaching the maximum intensity ([1]; pH 8): 12 s | Tmax and T1/2 as a function of pH ([1]; pH beyond 5): decrease when the pH increases beyond 5 | ε, molecular extinction coefficient [2]: 23000 M⁻¹ cm⁻¹ | S, fluorescence sensitivity [2]: 36 10^3 | RF, quantum efficiency of fluorescence [2]: 0.57
SMILES: Cc1cc(=O)oc2c3c4c(cc12)CCCN4CCC3 [COUMARIN-102, tetrahydro-2,3,5,6,7,1H,5H,11H-(1)-benzopyrano (6,7,8-ij) methyl-9 quinolizinone-11]
chemiluminescence efficiency RC as a function of concentration ([1]; TCPO and H2O2): increases with the coumarin 102 concentration | comparison of fluorescence, absorbance and chemiluminescence properties ([2]; Tables 2 and 3, versus coumarin-1 and coumarin-311): has the best fluorescence, absorbance and chemiluminescence properties

RC, quantum efficiency of chemiluminescence ([1]; DNPO and H2O2): 0.13 10^2 E · mole^-1 | RE, excitation efficiency ([1]; DNPO and H2O2): 0.24 10^-2 | RC, quantum efficiency of chemiluminescence ([1]; TCPO and H2O2, pH 7.5): 0.17 10^2 E · mole^-1 | RE, excitation efficiency ([1]; TCPO and H2O2, pH 7.5): 0.0032 | ε, molecular extinction coefficient [2]: 26900 M⁻¹ cm⁻¹ | S, fluorescence sensitivity [2]: 40 10^3 | RF, quantum efficiency of fluorescence [2]: 0.52
SMILES: Cc1cc(=O)oc2cc(N(C)C)ccc12 [COUMARIN-311, dimethylamino-7 methyl-4 coumarin]
